Test results taken from ChEMBL document CHEMBL5550093, “Design, synthesis and antitumor activity of 2-substituted quinazoline-4-amine derivatives” (Bioorg Med Chem, 2024).
The source made the active and inactive calls. No cut-off for these calls is given here.

Experiments:
PC-3 [1] = experiment: Antiproliferative activity against human PC-3 cells at 5 uM incubated for 48 hrs by MTT assay relative to control; type: functional
K562 [2] = experiment: Antiproliferative activity against human K562 cells at 5 uM incubated for 48 hrs by MTT assay relative to control; type: functional
A549 [3] = experiment: Antiproliferative activity against human A549 cells at 5 uM incubated for 48 hrs by MTT assay relative to control; type: functional
HeLa [4] = experiment: Antiproliferative activity against human HeLa cells at 5 uM incubated for 48 hrs by MTT assay relative to control; type: functional
[5] = Antiproliferative activity against HEK293T cells at 5 uM incubated for 48 hrs by MTT assay relative to control; type: toxicity, cell-based, HEK-293T; details: human
PC-3 [6] = experiment: Antiproliferative activity against human PC-3 cells incubated for 48 hrs by MTT assay; type: functional, cell-based; details: for IC50: PC-3, 48 h; for IC20: PC-3, time 48 hrs
K562 [7] = experiment: Antiproliferative activity against human K562 cells incubated for 48 hrs by MTT assay; type: functional, cell-based; details: K562, 48 h
HeLa [8] = experiment: Antiproliferative activity against human HeLa cells incubated for 48 hrs by MTT assay; type: functional, cell-based
A549 [9] = experiment: Antiproliferative activity against human A549 cells incubated for 48 hrs by MTT assay; type: functional, cell-based; details: A549, 48 h
[10] = Antiproliferative activity against HEK293T cells incubated for 48 hrs by MTT assay; type: toxicity, cell-based, HEK-293T; details: human
PC-3 [11] = experiment: Antiproliferative activity against human PC-3 overexpressing WRN cells incubated for 48 hrs by MTT assay; type: functional
PC-3 [12] = experiment: Inhibition of cell survival in human PC-3 cells at 1000 nM pretreated for 48 hrs followed by fresh media replacement without compound measured after 2 weeks by colony formation assay; type: functional, cell-based

Compound: COc1ccc(N(C)c2nc([C@@H](N)C(C)C)nc3ccccc23)cc1
- inhibition at 5 µM (PC-3 [1]): 51.9%
- inhibition at 5 µM (K562 [2]): 85.2%
- inhibition at 5 µM (A549 [3]): 72.6%
- inhibition at 5 µM (HeLa [4]): 33.6%
- inhibition at 48 h, 5 µM [5]: 59.2%
- IC50 (PC-3 [6]): 8 µM
- IC20 (PC-3 [6]): 7.61 µM
- IC50 (K562 [7]): 8 µM
- IC50 (HeLa [8]): > 10 µM
- IC50 (A549 [9]): > 10 µM
- IC50 at 48 h [10]: 7.9 µM
- IC20 (PC-3 [11]): 1.11 µM
- inhibition (PC-3 [12]): Active

Compound: CCOC(=O)c1c(C)nc(-c2ccc(N(C)c3nc(C(=O)c4ccccc4)nc4ccc(F)cc34)cc2)n1C
- inhibition at 5 µM (PC-3 [1]): 1%
- inhibition at 5 µM (K562 [2]): 30.1%
- inhibition at 5 µM (A549 [3]): 1.8%
- inhibition at 5 µM (HeLa [4]): 4%
- inhibition at 48 h, 5 µM [5]: 0.3%

Compound: O=C(c1ccccc1)c1nc(Nc2ccc(OC(F)(F)F)cc2)c2cc(F)ccc2n1
- inhibition at 5 µM (PC-3 [1]): 47.6%
- inhibition at 5 µM (K562 [2]): 19.3%
- inhibition at 5 µM (A549 [3]): 42.2%
- inhibition at 5 µM (HeLa [4]): 27.8%
- inhibition at 48 h, 5 µM [5]: 23%

Compound: O=C(c1ccccc1)c1nc(Nc2ccc(N3CCOCC3)cc2)c2cc(F)ccc2n1
- inhibition at 5 µM (PC-3 [1]): 3.1%
- inhibition at 5 µM (K562 [2]): 28.1%
- inhibition at 5 µM (A549 [3]): 39.3%
- inhibition at 5 µM (HeLa [4]): 31.1%
- inhibition at 48 h, 5 µM [5]: 29.7%

Compound: COc1ccc(Nc2nc(C(=O)c3cccc(OC)c3)nc3ccccc23)cc1
- inhibition at 5 µM (PC-3 [1]): 46.5%
- inhibition at 5 µM (K562 [2]): 25.2%
- inhibition at 5 µM (A549 [3]): 44.3%
- inhibition at 5 µM (HeLa [4]): 40.1%
- inhibition at 48 h, 5 µM [5]: 4.7%

Compound: CC(C)(CN1C(=O)C(Cl)=C(Cl)C1=O)CN1C(=O)C(Cl)=C(Cl)C1=O
- inhibition at 5 µM (PC-3 [1]): 51.1%
- inhibition at 5 µM (K562 [2]): 35%
- inhibition at 5 µM (A549 [3]): 7.3%
- inhibition at 5 µM (HeLa [4]): 69.1%
- inhibition at 48 h, 5 µM [5]: 71%
- IC50 (PC-3 [6]): 6.8 µM
- IC50 (K562 [7]): 1.8 µM
- IC50 (HeLa [8]): 2.7 µM
- IC50 (A549 [9]): 3.4 µM
- IC50 at 48 h [10]: 3.1 µM

Compound: COC(=O)c1ccc(Nc2nc(C(=O)c3ccc(F)cc3)nc3ccccc23)cc1
- inhibition at 5 µM (PC-3 [1]): 19%
- inhibition at 5 µM (K562 [2]): 6.8%
- inhibition at 5 µM (A549 [3]): 35.7%
- inhibition at 5 µM (HeLa [4]): 37.8%
- inhibition at 48 h, 5 µM [5]: 18.9%

Compound: CN(c1ccc(N2CCOCC2)cc1)c1nc(C(=O)c2ccccc2)nc2ccc(F)cc12
- inhibition at 5 µM (PC-3 [1]): 35.4%
- inhibition at 5 µM (K562 [2]): 35.4%
- inhibition at 5 µM (A549 [3]): 3.3%
- inhibition at 5 µM (HeLa [4]): 40.3%
- inhibition at 48 h, 5 µM [5]: 34.5%

Compound: COc1cccc(C(=O)c2nc(N(C)c3ccc(OC)c(OC)c3)c3ccccc3n2)c1
- inhibition at 5 µM (PC-3 [1]): 25.3%
- inhibition at 5 µM (K562 [2]): 38.8%
- inhibition at 5 µM (A549 [3]): 45.4%
- inhibition at 5 µM (HeLa [4]): 47.1%
- inhibition at 48 h, 5 µM [5]: 46.3%

Compound: COc1cc(N2CCNCC2)ccc1N(C)c1nc(C(=O)c2ccc(F)cc2)nc2ccccc12
- inhibition at 5 µM (PC-3 [1]): 17.3%
- inhibition at 5 µM (K562 [2]): 3.3%
- inhibition at 5 µM (A549 [3]): 11.9%
- inhibition at 5 µM (HeLa [4]): 5.2%
- inhibition at 48 h, 5 µM [5]: 3.2%

Compound: COc1cccc2c1C(=O)c1c(O)c3c(c(O)c1C2=O)C[C@@](O)(C(=O)CO)C[C@@H]3O[C@H]1C[C@H](N)[C@H](O)[C@H](C)O1 [DOXORUBICIN]
- inhibition at 5 µM (PC-3 [1]): 80.1%
- inhibition at 5 µM (K562 [2]): 61%
- inhibition at 5 µM (A549 [3]): 30.1%
- inhibition at 5 µM (HeLa [4]): 71.7%
- inhibition at 48 h, 5 µM [5]: 81.1%
- IC50 (K562 [7]): 2.3 µM
- IC50 (A549 [9]): 4.4 µM
- IC50 at 48 h [10]: 2.4 µM

Compound: CCOC(=O)c1[nH]c(-c2ccc(Nc3nc(C(=O)c4ccccc4)nc4ccc(F)cc34)cc2)nc1C
- inhibition at 5 µM (PC-3 [1]): 44.5%
- inhibition at 5 µM (K562 [2]): 55.4%
- inhibition at 5 µM (A549 [3]): 40.6%
- inhibition at 5 µM (HeLa [4]): 34.9%
- inhibition at 48 h, 5 µM [5]: 58.3%
- IC50 (PC-3 [6]): 5.7 µM
- IC20 (PC-3 [6]): 7.51 µM
- IC50 (K562 [7]): 8 µM
- IC50 (HeLa [8]): > 10 µM
- IC50 (A549 [9]): > 10 µM
- IC50 at 48 h [10]: 6.2 µM
- IC20 (PC-3 [11]): 6.6 µM

Compound: CN(c1ccc(OC(F)(F)F)cc1)c1nc(C(=O)c2ccccc2)nc2ccc(F)cc12
- inhibition at 5 µM (PC-3 [1]): 10.4%
- inhibition at 5 µM (K562 [2]): -2.2%
- inhibition at 5 µM (A549 [3]): 18.4%
- inhibition at 5 µM (HeLa [4]): -3.1%
- inhibition at 48 h, 5 µM [5]: 1.3%

Compound: COC(=O)c1ccc(N(C)c2nc(C(=O)c3ccc(F)cc3)nc3ccccc23)cc1OC
- inhibition at 5 µM (PC-3 [1]): 43.6%
- inhibition at 5 µM (K562 [2]): 40.2%
- inhibition at 5 µM (A549 [3]): 21.9%
- inhibition at 5 µM (HeLa [4]): 31.2%
- inhibition at 48 h, 5 µM [5]: 38%

Compound: COC(=O)c1ccc(Nc2nc(C(=O)c3ccc(F)cc3)nc3ccccc23)cc1OC
- inhibition at 5 µM (PC-3 [1]): -5.7%
- inhibition at 5 µM (K562 [2]): 8.5%
- inhibition at 5 µM (A549 [3]): 8.5%
- inhibition at 5 µM (HeLa [4]): 8.2%
- inhibition at 48 h, 5 µM [5]: 4.6%

Compound: CC(C)[C@H](N)c1nc(N(C)c2ccc(OC(F)(F)F)cc2)c2ccccc2n1
- inhibition at 5 µM (PC-3 [1]): 7%
- inhibition at 5 µM (K562 [2]): 81.4%
- inhibition at 5 µM (A549 [3]): 56.2%
- inhibition at 5 µM (HeLa [4]): 11.3%
- inhibition at 48 h, 5 µM [5]: 25.5%
